Test results taken from patent publication US11136301B2, “Broad spectrum antiviral compounds and uses thereof” (The Regents Of The University Of California, priority 2015, dated 2021).
Read-outs that look alike come from different tables or passages of the source.

How the values were obtained:
[1] = test system: wild-type HIV-1 (HIV-1LAI) in H9 cells (non-permissive); assay: microbe, parasite or virus in culture; type: cell-based
[2] = test system: wild-type HIV-1 (HIV-1LAI) in MT-4 cells (permissive); assay: Antiviral activity assay: wild-type HIV-1 in permissive MT4 cells, reverse transcriptase activity in culture supernatants; type: cell-based
[3] = Human immunodeficiency virus 1, H9, read-out: Antiviral activity (IC50 μM) H9, Table 2, wild-type HIV-1, non-permissive H9 cells
[4] = Human immunodeficiency virus 1, H9, read-out: Antiviral activity (IC50 μM) H9 Cells, Table 4, wild-type HIV-1, non-permissive H9 cells
[5] = Human immunodeficiency virus 1, H9, read-out: Antiviral activity (IC50 μM) H9 Cells, Table 7, wild-type HIV-1, non-permissive H9 cells
[6] = Human immunodeficiency virus 1, H9, read-out: Antiviral activity (IC50 μM) H9 cells, Table 5, wild-type HIV-1, non-permissive H9 cells
[7] = Human immunodeficiency virus 1, H9, read-out: Antiviral activity (IC50 μM) H9 cells, Table 8, wild-type HIV-1, non-permissive H9 cells
[8] = Human immunodeficiency virus 1, H9, read-out: Antiviral activity (IC50 μM) H9 cells, wild-type HIV-1 (HIV-1LAI), H9 cells (non-permissive), RT activity in culture supernatants, compounds 1 to 50 μM
[9] = Human immunodeficiency virus 1, H9, read-out: IC50, anti-HIV-1 activity, non-permissive H9 cells
[10] = Human immunodeficiency virus 1, MT4, Table 2, wild-type HIV-1, permissive MT4 cells, read-out: Antiviral activity (IC50 μM) MT4
[11] = Human immunodeficiency virus 1, MT4, wild-type HIV-1 (HIV-1LAI), MT4 cells (permissive), RT activity in culture supernatants, compounds 1 to 50 μM, read-out: Antiviral activity (IC50 μM) MT4 cells

## COc1ccccc1-n1cc(-c2ccccc2Sc2ccc(C(=O)O)cc2)nn1 [Compound 2fx, 4-((2-(1-(2-Methoxyphenyl)-1H-1,2,3-triazol-4-yl)phenyl)thio)benzoic Acid]
[1]; [3]
  IC50: 1 µM
[1]; [4]
  IC50: 1 µM
[1]; [5]
  IC50: 1 µM
[1]; [6]
  IC50: 1 µM
[1]; [7]
  IC50: 1 µM
[1]; [8]
  IC50: 1 µM
[1]; [9]
  IC50: 1 to 3 µM
[2]; [10]
  IC50: > 50 µM
[2]; [11]
  IC50: > 50 µM

## COc1cccc(F)c1-n1cc(-c2ccccc2S(=O)(=O)c2ccc(C(F)(F)F)cc2)nn1 [Compound 7dy, 1-(2-Fluoro-6-methoxyphenyl)-4-(2-((4-(trifluoromethyl)phenyl)sulfonyl)phenyl)-1H-1,2,3-triazole]
[1]; [3]
  IC50: > 50 µM
[1]; [6]
  IC50: > 50 µM
[1]; [7]
  IC50: > 50 µM
[1]; [8]
  IC50: > 50 µM
[2]; [10]
  IC50: > 50 µM
[2]; [11]
  IC50: > 50 µM

## COc1cccc(F)c1-n1cc(-c2ccccc2S(=O)(=O)c2ccc(C(=O)O)cc2)nn1 [Compound 7fy, 4-((2-(1-(2-Fluoro-6-methoxyphenyl)-1H-1,2,3-triazol-4-yl)phenyl)sulfonyl)benzoic Acid]
[1]; [3]
  IC50: > 50 µM
[1]; [6]
  IC50: > 50 µM
[1]; [7]
  IC50: > 50 µM
[1]; [8]
  IC50: > 50 µM
[2]; [10]
  IC50: > 50 µM
[2]; [11]
  IC50: > 50 µM

## COC(=O)c1ccc(Sc2ccccc2-c2cn(-c3ccccc3OC)nn2)cc1 [Compound 2bx, Methyl 4-((2-(1-(2-methoxyphenyl)-1H-1,2,3-triazol-4-yl)phenyl)thio)benzoate]
[1]; [3]
  IC50: > 50 µM
[1]; [6]
  IC50: > 50 µM
[1]; [7]
  IC50: > 50 µM
[1]; [8]
  IC50: > 50 µM
[2]; [10]
  IC50: > 50 µM
[2]; [11]
  IC50: > 50 µM

## COc1cccc(F)c1-n1cc(-c2ccccc2Sc2ccc(C(=O)O)cc2)nn1 [Compound 7fx, 4-((2-(1-(2-Fluoro-6-methoxyphenyl)-1H-1,2,3-triazol-4-yl)phenyl)thio)benzoic Acid]
[1]; [3]
  IC50: 4.9 µM
[1]; [4]
  IC50: 4.9 µM
[1]; [5]
  IC50: 4.9 µM
[1]; [6]
  IC50: 4.9 µM
[1]; [7]
  IC50: 4.9 µM
[1]; [8]
  IC50: 4.9 µM
[2]; [10]
  IC50: > 50 µM
[2]; [11]
  IC50: > 50 µM

## COc1cccc(OC)c1-n1cc(-c2ccccc2S(=O)(=O)c2ccc(C(=O)O)cc2)nn1 [Compound 6fy, 4-((2-(1-(2,6-Dimethoxyphenyl)-1H-1,2,3-triazol-4-yl)phenyl)sulfonyl)benzoic Acid]
[1]; [3]
  IC50: 1.2 µM
[1]; [4]
  IC50: 1.2 µM
[1]; [5]
  IC50: 1.2 µM
[1]; [6]
  IC50: 1.2 µM
[1]; [7]
  IC50: 1.2 µM
[1]; [8]
  IC50: 1.2 µM
[1]; [9]
  IC50: 1 to 3 µM
[2]; [10]
  IC50: > 50 µM
[2]; [11]
  IC50: > 50 µM

## COC(=O)c1ccc(Sc2ccccc2-c2cn(-c3cccc(OC)c3OC)nn2)cc1 [Compound 3bx, Methyl 4-((2-(1-(2,3-dimethoxyphenyl)-1H-1,2,3-triazol-4-yl)phenyl)thio)benzoate]
[1]; [3]
  IC50: 8 µM
[1]; [4]
  IC50: 8 µM
[1]; [5]
  IC50: 8 µM
[1]; [6]
  IC50: 8 µM
[1]; [7]
  IC50: 8 µM
[1]; [8]
  IC50: 8 µM
[2]; [10]
  IC50: > 50 µM
[2]; [11]
  IC50: > 50 µM

## COC(=O)c1ccc(Sc2ccccc2-c2cn(-c3c(F)cccc3OC)nn2)cc1 [Compound 7bx, Methyl 4-((2-(1-(2-fluoro-6-methoxyphenyl)-1H-1,2,3-triazol-4-yl)phenyl)thio)benzoate]
[1]; [3]
  IC50: 7.8 µM
[1]; [4]
  IC50: 7.8 µM
[1]; [5]
  IC50: 7.8 µM
[1]; [6]
  IC50: 7.8 µM
[1]; [7]
  IC50: 7.8 µM
[1]; [8]
  IC50: 7.8 µM
[2]; [10]
  IC50: > 50 µM
[2]; [11]
  IC50: > 50 µM

## COc1cccc(F)c1-n1cc(-c2ccccc2S(=O)(=O)c2ccc(N)cc2)nn1 [Compound 7ey, 4-((2-(1-(2-Fluoro-6-methoxyphenyl)-1H-1,2,3-triazol-4-yl)phenyl)sulfonyl)aniline]
[1]; [3]
  IC50: 15 µM
[1]; [4]
  IC50: 15 µM
[1]; [5]
  IC50: 15 µM
[1]; [6]
  IC50: 15 µM
[1]; [7]
  IC50: 15 µM
[1]; [8]
  IC50: 15 µM
[2]; [10]
  IC50: > 50 µM
[2]; [11]
  IC50: > 50 µM

## COc1ccc(-n2cc(-c3ccccc3S(=O)(=O)c3ccc(C(F)(F)F)cc3)nn2)c(OC)c1 [Compound 4dy, 1-(2,4-Dimethoxyphenyl)-4-(2-((4-(trifluoromethyl)phenyl)sulfonyl)phenyl)-1H-1,2,3-triazole]
[1]; [3]
  IC50: 12 µM
[1]; [4]
  IC50: 12 µM
[1]; [5]
  IC50: 12 µM
[1]; [6]
  IC50: 12 µM
[1]; [7]
  IC50: 12 µM
[1]; [8]
  IC50: 12 µM
[2]; [10]
  IC50: > 50 µM
[2]; [11]
  IC50: > 50 µM

## COc1cccc(-n2cc(-c3ccccc3S(=O)(=O)c3ccc(C(F)(F)F)cc3)nn2)c1OC [Compound 3dy, 1-(2,3-Dimethoxyphenyl)-4-(2-((4-(trifluoromethyl)phenyl)sulfonyl)phenyl)-1H-1,2,3-triazole]
[1]; [3]
  IC50: > 50 µM
[1]; [6]
  IC50: > 50 µM
[1]; [7]
  IC50: > 50 µM
[1]; [8]
  IC50: > 50 µM
[2]; [10]
  IC50: > 50 µM
[2]; [11]
  IC50: > 50 µM

## COc1cccc(OC)c1-n1cc(-c2ccccc2S(=O)(=O)c2ccc(N)cc2)nn1 [Compound 6ey, 4-((2-(1-(2,6-Dimethoxyphenyl)-1H-1,2,3-triazol-4-yl)phenyl)sulfonyl)aniline]
[1]; [3]
  IC50: 1.5 µM
[1]; [4]
  IC50: 1.5 µM
[1]; [5]
  IC50: 1.5 µM
[1]; [6]
  IC50: 1.5 µM
[1]; [7]
  IC50: 1.5 µM
[1]; [8]
  IC50: 1.5 µM
[1]; [9]
  IC50: 1 to 3 µM
[2]; [10]
  IC50: > 50 µM
[2]; [11]
  IC50: > 50 µM

## COc1ccc(S(=O)(=O)c2ccccc2-c2cn(-c3cccc(OC)c3OC)nn2)cc1 [Compound 3cy, 1-(2,3-Dimethoxyphenyl)-4-(2-((4-methoxyphenyl)sulfonyl)phenyl)-1H-1,2,3-triazole]
[1]; [3]
  IC50: > 50 µM
[1]; [6]
  IC50: > 50 µM
[1]; [7]
  IC50: > 50 µM
[1]; [8]
  IC50: > 50 µM
[2]; [10]
  IC50: > 50 µM
[2]; [11]
  IC50: > 50 µM

## COc1cccc(OC)c1-n1cc(-c2ccccc2S(=O)(=O)c2ccc([N+](=O)[O-])cc2)nn1 [Compound 6ay, 1-(2,6-Dimethoxyphenyl)-4-(2-((4-nitrophenyl)sulfonyl)phenyl)-1H-1,2,3-triazole]
[1]; [3]
  IC50: > 50 µM
[1]; [6]
  IC50: > 50 µM
[1]; [7]
  IC50: > 50 µM
[1]; [8]
  IC50: > 50 µM
[2]; [10]
  IC50: > 50 µM
[2]; [11]
  IC50: > 50 µM

## COc1ccc(-n2cc(-c3ccccc3S(=O)(=O)c3ccc([N+](=O)[O-])cc3)nn2)c(OC)c1 [Compound 4ay, 1-(2,4-Dimethoxyphenyl)-4-(2-((4-nitrophenyl)sulfonyl)phenyl)-1H-1,2,3-triazole]
[1]; [3]
  IC50: > 50 µM
[1]; [6]
  IC50: > 50 µM
[1]; [7]
  IC50: > 50 µM
[1]; [8]
  IC50: > 50 µM
[2]; [10]
  IC50: > 50 µM
[2]; [11]
  IC50: > 50 µM

## COc1ccc(S(=O)(=O)c2ccccc2-c2cn(-c3c(OC)cccc3OC)nn2)cc1 [Compound 6cy, 1-(2,6-Dimethoxyphenyl)-4-(2-((4-methoxyphenyl)sulfonyl)phenyl)-1H-1,2,3-triazole]
[1]; [3]
  IC50: > 50 µM
[1]; [6]
  IC50: > 50 µM
[1]; [7]
  IC50: > 50 µM
[1]; [8]
  IC50: > 50 µM
[2]; [10]
  IC50: > 50 µM
[2]; [11]
  IC50: > 50 µM

## COc1ccc(S(=O)(=O)c2ccccc2-c2cn(-c3ccc(OC)cc3OC)nn2)cc1 [Compound 4cy, 1-(2,4-Dimethoxyphenyl)-4-(2-((4-methoxyphenyl)sulfonyl)phenyl)-1H-1,2,3-triazole]
[1]; [3]
  IC50: > 50 µM
[1]; [6]
  IC50: > 50 µM
[1]; [7]
  IC50: > 50 µM
[1]; [8]
  IC50: > 50 µM
[2]; [10]
  IC50: > 50 µM
[2]; [11]
  IC50: > 50 µM
